Measured values from a melting point compilation (Tetko et al.; mined from patent text by program, amines drawn as free bases though some values may be those of a salt).

Point of comparison: `CCC(C(=O)c1ccc(Cl)cc1)n1ncn(-c2cnc(N3CCN(c4ccc(OC)cc4)CC3)nc2)c1=O` (configuration not stated), melting point 185 °C. Against it:
- Cc1oc(-c2ccccc2)nc1COc1cccc(C=O)c1 — lower, 67 to 68 °C
- CCCCCCCCCCc1ccc(C(N)(CO)CO)cc1 — lower, 136 to 137 °C
- Cc1cc(C)c2c(c1C)OC(C)(CC#N)C2 (configuration not stated) — lower, 58 to 59 °C
- COc1ccc(SCCNC(=O)N2CCCC2=O)cc1 — lower, 64 to 65 °C
- O=C1OC(CO)CN2C1=Cc1ccsc1S2(=O)=O (configuration not stated) — higher, 210 to 212 °C
- CCCn1c(=O)c2nc(-c3cccc(/C=C/C(=O)O)c3)[nH]c2n(CC2CCCCC2)c1=O — higher, > 350 °C
- CCCCCCCCCCCCCCCCOCC(CO)COC(C)=O (configuration not stated) — lower, 33 °C
- Cc1nc(N)c(Br)c(NNCc2cncc(Br)c2)n1 — higher, 221 to 222 °C
- Cc1cc(O)c(CC(=O)OC(C)C)cc1O — lower, 123 °C
- CC1(C)Oc2ccc(C#N)cc2[C@@H](NC(=O)Nc2cccc(CC(=O)O)c2)[C@@H]1O — lower, 135 to 138 °C
- CCOC(=O)[C@@H](NC(=O)[C@H](CC(C)C)NC(=O)OC(C)(C)C)[C@@H](C)O — lower, 67 to 70 °C
- CS(=O)c1cnc2c(c1)CCC(c1ccc(Cl)c(Cl)c1)O2 (configuration not stated) — lower, 159 to 162 °C
- COCC1CN(c2ccc(C3CCC(OC(=O)c4ccccc4C4=NCCO4)CC3)cc2)C(=O)O1 (racemic) — lower, 182 to 184 °C
- COc1ccccc1N1CCN(CCCOc2ccc(-c3cn4ccccc4n3)cc2)CC1 — lower, 149 to 150 °C
- Cn1ccc2c(-n3cc(C(=O)O)c4cccnc43)ncnc21 — higher, > 260 °C
- CCOC(=O)CCC1CCCN2CCc3c([nH]c4ccccc34)C12 (configuration not stated) — lower, 72 to 74 °C
- COc1ccc(C=C(c2ccc(OCc3ccccc3)cc2)N(C)C)cc1 — lower, 60 °C
- O=[N+]([O-])c1cccc2c(Cl)c(Br)cnc12 — lower, 135 to 136 °C
- COc1cc2c(cc1OC)CN(c1c(C)c(C)c3c(c1C)C(c1ccc(C)cc1)C(C)(C)O3)C2 (configuration not stated) — lower, 156 to 159 °C
- CC[C@H](COC)n1cc(Br)nc(N2CCc3cc(Br)cc(Cl)c32)c1=O — lower, 118 °C
- CC(C)(C)CC(=O)Nc1ccc2oc3c(c2c1)CCCCCC3 — lower, 157 to 158 °C
- CC(=O)OC1CCCC2=CC=C3C4CCC(C(C)CCCC(C)C)C4(C)CCC3C21C (configuration not stated) — lower, 105 to 106 °C
- CCCCCCC(C)(C)c1cc(OC)c(C2=C[C@@H]3CC[C@@]2(C(=O)O)C3(C)C)c(OC)c1 — lower, 101 to 102 °C
- COc1ccc(N2CCN(c3ccc(OC)nc3-c3ccc(C)cc3)CC2)cc1 — lower, 143 to 146 °C
- COc1ccccc1C1(C(=O)O)CCCC1 — lower, 116 to 124 °C
- Cc1cc(SC2CC(=O)N(c3ccccc3)C2=O)cc(C(C)(C)C)c1O (configuration not stated) — lower, 158 to 160 °C
- O=C(CC1CCCCC1)NC1CCCCC1 — lower, 164 to 165 °C
- CCOc1ccccc1OC(Cc1ccccc1)C1=NCCN1 (configuration not stated) — lower, 95 to 97 °C
- COc1ccc2c(c1O)CCN(C=O)[C@@H]2c1cc(OC)c(OC)c(OC)c1 — higher, 190 to 192 °C
- CC(C)(C)N1CC(=O)Nc2ccc(Br)cc2C1=O — higher, 205 to 208 °C
- CCSCCOC(=O)C1=C(C)NC(C)=C(C(=O)OCC=Cc2ccccc2)C1c1cccc([N+](=O)[O-])c1 (configuration not stated) — lower, 142 to 144 °C
- COc1cccc(-c2cnn(-c3cccc(C(=O)O)c3)c2)c1 — lower, 157 to 158 °C
- OC1CCC2(CC1)Cc1ccccc1C2 — lower, 76 to 78 °C
- CC(C)(C)NC(=O)NC(C)(C)C — higher, 246 °C
- Cc1cc(C)cc(Sc2c(CC#N)nc(C)n2C)c1 — lower, 81 to 82 °C
- COc1cc2c(cc1OC(C)=O)C(=O)CCC2 — lower, 118 to 120 °C
- C[C@@H]1CN(c2c(F)c(N)c3c(=O)c(C(=O)O)cn(C4CC4)c3c2F)C[C@H](C)N1 — higher, 258 to 260 °C
- COC(=O)CC(=O)Nc1cccc(S)c1 — lower, 52 to 54 °C
- Cn1cc(-c2cc3cccnc3[nH]2)c2ccc(C(=O)NCCC(N)=O)cc21 — higher, 277 to 280 °C
- Nc1sc2c(c1C(=O)c1ccsc1)CCC(Cc1ccccc1)C2 (configuration not stated) — lower, 57 to 58 °C
- CCOC(=O)CSc1nc(Cl)c(C)c(NCc2ccc(Cl)cc2)n1 — lower, 114 to 117 °C
- CCN1CCN(CCN2CC[C@H](NC(=O)c3cc(Cl)c(N)cc3OC)[C@H](OC)C2)C1=O (relative stereo) — lower, 153 °C
- Nc1cc(-c2ccoc2)ccc1Nc1cccc(C(=O)O)c1 — higher, 211 to 212 °C
- CC(=O)OCCn1nc(O)c2[nH]c3cc(Cl)ccc3c(=O)c2c1=O — higher, 307 to 309 °C
- CNC(=S)NCCCSc1cncc(NC(N)=NCC(F)(F)F)n1 — lower, 165 to 167 °C
- CCN1CC(=O)N(CC)c2cc(Nc3ncc(Cl)c(Nc4ccc(OC)cc4-n4cccn4)n3)c(OC)cc2C1 — lower, 97 to 100 °C
- CNc1nc(-c2ccc(SC)cc2)n(-c2ccc(C)cc2)c(=O)c1C#N — higher, 268 to 271 °C
- O=C(Nc1ccc(-n2nc(C(F)(F)F)cc2C2CC2)c(F)c1)c1ccncc1F — lower, 161 to 165 °C
- Cc1nc2c(n1C)CCCC2=O — lower, 98.1 °C
- CC(C)c1cccc2c1N(CC(=O)N1CC3CCC(CC3)C1)C(=O)C(NC(=O)Nc1cccc(-c3nnn[nH]3)c1)N=C2c1ccccc1F (configuration not stated) — higher, 212 to 222 °C
- COS(=O)(=O)Oc1ccc(-c2cccc(-c3nc(C(C)C)[nH]c3-c3cccc(C)n3)c2)cc1 — lower, 95 to 105 °C
- CCCN1CCC(C(=O)O)=Cc2cc(Br)ccc21 — lower, 172 to 173 °C
- O=C(NC1CCN(CCC(O)c2ccc3c(c2)OCCO3)CC1)c1ccccc1 (configuration not stated) — higher, 193 to 197 °C
- Cn1cc(C#N)c(=O)c(-c2cccc(C(F)(F)F)c2)c1 — higher, 228 to 229 °C
- Nc1c(-c2cccc(Oc3ccccc3)c2)c(=O)[nH]c2cc(Cl)ccc12 — higher, 196 to 197 °C
- CSc1nnc(-c2ccccc2)n1C — lower, 134 to 135 °C
- COC(=O)[C@H]1CC[C@H](NC(=O)c2cc(-c3ccc(C#N)cc3)nn(Cc3ccccc3)c2=O)CC1 — higher, 217 to 220 °C
- COCCN(C)C(=O)c1cc2c(nc(C)n2C)c2c1CCC1(Cc3ccccc3C1)N2 — lower, 160 to 161 °C
- O=C(NCCN1CCOCC1)Nc1nc2ccc(OCc3c(Cl)cccc3Cl)cc2[nH]1 — higher, 256 to 259 °C
- COc1cccc(CC(=O)O)c1OCCCc1cn(-c2ccc(C(F)(F)F)cn2)nc1C1CCCCC1 — lower, 140 to 141 °C
- Cc1c(C)c(N2CCN(c3ccc(Cl)cc3)CC2)c(C)c2c1OC(C)(C)C2 — higher, 226 to 229 °C
- CCSc1cc(C(C)(C)C)c(O)c(C(C)(C)C)c1 — lower, 33 °C
- CS(=O)(=O)Nc1cccc(Nc2nc(NCC3CCCCN3)c3nc[nH]c3n2)c1 (configuration not stated) — lower, 147 to 150 °C
- CN(C)c1ccc(NC(=O)N(CC2CCCCC2)C[C@H]2CCCC[C@H]2CN(CC2CCCCC2)C(=O)Nc2ccc(N(C)C)cc2)cc1 — lower, 102 to 106 °C
- CN1CCCCC1CCc1ccccc1NC(=O)c1cccnc1 (configuration not stated) — lower, 88 to 90 °C
- NS(=O)(=O)c1cccc(-c2ccco2)c1 — higher, 197 to 198 °C
- COc1ccccc1N1CCC(CNCC2COc3cccc(O)c3O2)CC1 (configuration not stated) — lower, 116 to 119 °C
- COc1ccc(C2=NN(Cc3ccc(CC(=O)O)cc3)C(=O)[C@H]3CCCC[C@@H]23)cc1OC (relative stereo) — lower, 164 to 166 °C
- Nc1nc(N)c2c(ccc3c2c2c(n3Cc3ccccc3)CCCC2)n1 — higher, 224 to 226 °C
- Cc1cc(C)c([C@H](O)[C@@H](C#N)c2ccccc2)c(C)c1 (racemic) — lower, 132 °C
- COC(=O)c1ccc(C(=O)N2CCN(c3ncccc3NCC(C)C)CC2)nc1 — lower, 82 to 84 °C
- O=C(Nc1ccc(F)cc1)N(O)Cc1ccc(OCc2csc(-c3ccc(C(F)(F)F)cc3)n2)cc1 — lower, 174 to 176 °C
- CCCCC1(CC)CSc2ccccc2N(c2ccccc2)C1=O (configuration not stated) — lower, 90 °C
- CCOC(=O)c1cn(C2CC2)c2c(F)c(-c3cc(C)nc(C)c3)c(F)cc2c1=S — higher, 194 to 195 °C
- NC(=O)NC(=O)c1ccc2ccccc2c1 — higher, 207 to 208 °C
- COc1ccc(/C=C/c2ccncc2)cc1O — higher, 196 to 199 °C
- Cc1cn(C(C)C(=O)N(C)C)nc1-c1ccccc1Br (configuration not stated) — lower, 102 to 104 °C
- CCCCCC1CCN([C@H]2CC[C@H](C(=O)OC)CC2)CC1 — lower, 5 °C
- Cc1nc(-c2ccc(Cn3sccc3=O)cc2)cs1 — lower, 150 to 152 °C
- O=c1ccn(C(OC2CCCCO2)c2ccccn2)cc1 (configuration not stated) — lower, 173 to 176 °C
- O=C(N[C@H]1CC[C@H](CCN2CCN(c3nccc4c3OCC4)CC2)CC1)c1ccc(Cl)cc1 — higher, 252 °C
- COC=CC=C(C#N)C#N — lower, 74 to 76 °C
- NC(=O)NN=C1c2ncc(Cl)cc2C=CC1Cl (configuration not stated) — higher, > 280 °C
- C=CCSC1(C(F)(F)F)C=NC(=O)Nc2ccc(Cl)cc21 (configuration not stated) — lower, 147 to 149 °C
- Oc1cc(O)c2cc(-c3cc(F)cc(F)c3)oc2c1 — higher, 208 to 209 °C
- CCOC(=O)/C=C(/c1ccc(OC)cc1)c1cc(C)cc(Cl)c1 — lower, 83 to 85 °C
- CC(=O)N(C)c1ccc2c(c1)cc(C(=O)c1ccc(C)cc1)n2C — higher, 193 to 195 °C
- CCCCCCCCCCCCCCCC(CC)C1OC(=O)C(O)=C1O (configuration not stated) — lower, 114 to 117 °C
- CCCOc1ccc(-c2cccc3nc(N)c4ncn(CC(C)C)c4c23)cc1 — lower, 181 to 182 °C
- Cc1c(N)cccc1CO — lower, 104 to 106 °C
- COC(=O)NC(C)c1cccc(-c2ccc(OC)cc2)c1 (configuration not stated) — lower, 117 to 119 °C
- c1ccc(COc2cccnc2Cn2ccnc2)cc1 — lower, 73 to 74 °C
- Cc1c(Cl)cccc1S(=O)(=O)Nc1ccc2ncncc2c1 — higher, > 270 °C
- O=S(=O)(Cc1ccccc1)C1CCN(Cc2ccccc2)CC1 — lower, 120 to 121 °C
- CSc1nc(O)cc(O)n1 — higher, > 250 °C
- c1ccc(C2=NNC(c3ccccc3)C2)cc1 (configuration not stated) — higher, 194 to 199 °C
- O=C(O)c1ccnc2[nH]c(CCc3ccccc3)cc12 — higher, > 300 °C
- Clc1ccc(-c2cc(C3CCN(CCc4ccccc4)CC3)no2)cc1 — lower, 118 to 120 °C
- Nc1nc2ccccc2c2c1nc(-c1ccccc1)n2CCCCNC(=O)Nc1ccc(F)cc1 — lower, 145 to 150 °C
- C=CCN(Cc1cc(Br)ccc1OCc1ccccc1)c1ccc(C(=O)O)nn1 — lower, 135 to 136 °C
- COC(=O)COc1c(F)cc(SCCNS(=O)(=O)c2ccc(Cl)cc2)cc1F — lower, 79.5 to 80.5 °C
